These results are taken from patent US20140135310A1, “SULPHONAMIDE DERIVATIVES OF ALICYCLIC AMINES FOR THE TREATMENT OF CENTRAL NERVOUS SYSTEM DISEASES” (Adamed Sp. z o.o., priority 2011, published 2014).

One assay relates to σ receptors. The experiment in a line: Radioligand binding assay, σ receptors. The following applies: rat cerebral cortex, [3H]DTG 8 nM. From the text: The specific ligand binding to the receptors is defined as the difference between the total binding and the non-specific binding determined in the presence of the excess of unlabelled ligand.
The results are expressed as a percent of control specific binding ((measured specific binding/control specific binding)×100) and as a percent inhibition of control specific binding (100−((measured specific binding/control specific binding)×100)) obtained in the presence of the test compounds. The specific ligand binding to the receptors is defined as the difference between the total binding and the nonspecific binding determined in the presence of an excess of unlabelled ligand. Scintillation counting was the method of detection of ligand binding. The IC50 values (concentration causing a half-maximal inhibition of control specific binding) were determined by non-linear regression analysis of the competition curves generated with mean replicate values using Hill equation curve fitting (Y=D+[(A−D)/(1+(C/C50)nH)], where Y=specific binding, D=minimum specific binding, A=maximum specific binding, C=compound concentration, C50=IC50, and nH=slope factor). […] The inhibition constants (Ki) were calculated using the Cheng Prusoff equation (Ki=IC50/(1+(L/KD)), where L=concentration of radioligand in the assay, and KD=affinity of the radioligand for the receptor). A scatchard plot was used to determine the Kd.

For assay [1], the target named is T1, 5-HT1A receptor (rat hippocampus) (Rattus norvegicus, UniProt P19327).
T1 construct: hippocampus; from tissue; host or cells: rat hippocampus
T1 sequence (P19327 1-422): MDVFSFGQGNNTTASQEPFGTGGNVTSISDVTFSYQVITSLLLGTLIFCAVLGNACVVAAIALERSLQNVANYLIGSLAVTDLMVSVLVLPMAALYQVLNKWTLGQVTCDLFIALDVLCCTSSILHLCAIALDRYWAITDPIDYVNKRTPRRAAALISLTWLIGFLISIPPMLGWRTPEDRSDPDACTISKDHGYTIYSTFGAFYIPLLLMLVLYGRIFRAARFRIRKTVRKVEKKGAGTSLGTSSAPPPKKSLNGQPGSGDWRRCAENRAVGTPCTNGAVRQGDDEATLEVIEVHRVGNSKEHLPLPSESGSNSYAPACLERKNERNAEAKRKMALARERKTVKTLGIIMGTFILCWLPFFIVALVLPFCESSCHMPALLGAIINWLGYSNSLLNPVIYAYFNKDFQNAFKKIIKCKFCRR
The experiment in a line: Radioligand binding assay, serotoninergic 5-HT1A receptors.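 Note: test compound at 1 µM.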 The note with it: binding assay result in %, Table 5a.

Assay [2] deals with T2, H1 histaminergic receptors (Homo sapiens, UniProt P35367).
T2 construct: expressed in transfected cells; host or cells: HEK-293 cells
The experiment in a line: Radioligand binding assay, histaminergic H1 receptors. The note with it: human recombinant (HEK-293 cells), [3H]pyrilamine 1 nM. A digest of the protocol: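 Competition binding at human H1 receptors; specific binding taken as total minus non-specific binding in excess unlabelled ligand, scintillation read-out. IC50 from Hill-equation fit of competition curves; Ki by Cheng-Prusoff using radioligand concentration and Kd (from Scatchard plot).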

Assay [3] has as its target dopaminergic receptors D3 (Homo sapiens, UniProt P35462). Nature of the assay: Radioligand binding assay, dopaminergic D3 receptors. The following applies: test compound 1×10^−6 M. Put shortly:
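Scintillation read-out. Specific = total − nonspecific (excess cold ligand). Data as % of control specific binding / % inhibition; IC50 by Hill fit; Ki = IC50/(1+L/KD), KD from Scatchard plot.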

Another assay concerns the target T3, 5-HT7 receptor (Homo sapiens, UniProt P34969).
T3 construct: purchased PerkinElmer
Nature of the assay: Radioligand binding assay, serotoninergic 5-HT7 receptors.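 Note: test compound at 1 µM.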 The note with it: binding assay result in %, Table 5a. Put shortly:
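Ki values used the Cheng–Prusoff equation, with KD from Scatchard analysis, applied to IC50 from Hill fits of human 5-HT7 radioligand competition curves. Bound radioligand was counted by scintillation, and excess unlabelled ligand set the non-specific binding.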

The next assay addresses T4, 5-HT2A receptor (Homo sapiens, UniProt P28223).
T4 construct: purchased PerkinElmer
The experiment in a line: Radioligand binding assay, serotoninergic 5-HT2A receptors. A digest of the protocol: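 Competition curves from scintillation-counted specific binding (total minus binding with excess unlabelled ligand) were Hill-fitted to give IC50, converted to Ki via Cheng-Prusoff using Scatchard-derived Kd.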

The target of a further assay is T5, α2C adrenergic receptors (Homo sapiens, UniProt P18825).
T5 construct: expressed in transfected cells; host or cells: CHO cells
T5 sequence (P18825 1-462): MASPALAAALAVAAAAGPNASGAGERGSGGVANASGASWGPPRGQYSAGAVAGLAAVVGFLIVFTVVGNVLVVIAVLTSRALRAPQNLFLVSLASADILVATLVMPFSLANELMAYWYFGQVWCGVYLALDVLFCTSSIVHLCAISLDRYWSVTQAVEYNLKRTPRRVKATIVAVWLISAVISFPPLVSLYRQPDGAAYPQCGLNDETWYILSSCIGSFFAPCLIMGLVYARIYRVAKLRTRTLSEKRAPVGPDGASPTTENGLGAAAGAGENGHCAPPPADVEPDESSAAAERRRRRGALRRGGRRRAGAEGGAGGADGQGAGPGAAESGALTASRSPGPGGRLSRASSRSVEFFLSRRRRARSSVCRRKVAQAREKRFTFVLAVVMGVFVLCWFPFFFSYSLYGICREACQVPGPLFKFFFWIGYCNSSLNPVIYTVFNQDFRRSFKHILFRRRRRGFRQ
Nature of the assay: Radioligand binding assay, adrenergic α2C receptors. The following applies: test compound 1×10^−6 M. Put shortly: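 Competitive radioligand binding at human α2C receptors, with scintillation counting. Nonspecific binding defined with excess unlabelled ligand; results given as % inhibition of control specific binding. IC50 from Hill-equation fits of competition curves; Ki via Cheng-Prusoff using radioligand concentration and Scatchard-derived KD.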

The mark [4] stands for this setting: binding assay result in %, Table 5a.

dopaminergic receptors D3, sequence (P35462 whole entry): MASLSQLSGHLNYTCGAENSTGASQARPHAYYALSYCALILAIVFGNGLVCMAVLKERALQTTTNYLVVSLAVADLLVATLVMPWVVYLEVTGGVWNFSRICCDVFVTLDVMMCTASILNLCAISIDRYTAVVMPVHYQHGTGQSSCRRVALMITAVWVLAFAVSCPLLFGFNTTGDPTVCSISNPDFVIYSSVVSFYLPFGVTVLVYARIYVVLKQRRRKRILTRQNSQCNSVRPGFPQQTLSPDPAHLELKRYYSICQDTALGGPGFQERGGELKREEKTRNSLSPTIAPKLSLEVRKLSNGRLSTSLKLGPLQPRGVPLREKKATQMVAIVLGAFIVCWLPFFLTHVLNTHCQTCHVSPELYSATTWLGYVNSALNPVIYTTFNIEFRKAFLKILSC
T3 sequence (P34969 whole entry): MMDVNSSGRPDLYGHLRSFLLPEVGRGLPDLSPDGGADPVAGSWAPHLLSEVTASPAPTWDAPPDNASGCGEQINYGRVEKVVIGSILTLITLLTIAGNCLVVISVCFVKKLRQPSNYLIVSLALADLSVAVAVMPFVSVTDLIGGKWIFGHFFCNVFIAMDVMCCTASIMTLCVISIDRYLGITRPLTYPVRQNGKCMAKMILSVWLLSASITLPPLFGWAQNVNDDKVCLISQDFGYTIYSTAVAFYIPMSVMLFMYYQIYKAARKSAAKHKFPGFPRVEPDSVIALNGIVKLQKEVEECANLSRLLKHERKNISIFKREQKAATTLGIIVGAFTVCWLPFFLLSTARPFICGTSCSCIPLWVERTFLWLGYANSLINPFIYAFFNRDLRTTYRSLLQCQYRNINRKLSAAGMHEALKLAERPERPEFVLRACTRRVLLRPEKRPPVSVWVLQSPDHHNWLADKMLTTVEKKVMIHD
T2 sequence (P35367 whole entry): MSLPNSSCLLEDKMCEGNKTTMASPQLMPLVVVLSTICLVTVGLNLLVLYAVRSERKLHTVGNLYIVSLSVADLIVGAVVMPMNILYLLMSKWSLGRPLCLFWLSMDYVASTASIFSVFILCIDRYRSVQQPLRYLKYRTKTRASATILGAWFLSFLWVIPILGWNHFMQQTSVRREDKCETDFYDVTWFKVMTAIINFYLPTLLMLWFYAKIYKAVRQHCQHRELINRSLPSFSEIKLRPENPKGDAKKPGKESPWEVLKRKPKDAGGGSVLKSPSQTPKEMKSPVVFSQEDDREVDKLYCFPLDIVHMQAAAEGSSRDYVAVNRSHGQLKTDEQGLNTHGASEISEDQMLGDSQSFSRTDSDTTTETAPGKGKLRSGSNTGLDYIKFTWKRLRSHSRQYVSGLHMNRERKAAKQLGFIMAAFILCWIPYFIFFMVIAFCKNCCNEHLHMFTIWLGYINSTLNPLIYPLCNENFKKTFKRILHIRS
T4 sequence (P28223 whole entry): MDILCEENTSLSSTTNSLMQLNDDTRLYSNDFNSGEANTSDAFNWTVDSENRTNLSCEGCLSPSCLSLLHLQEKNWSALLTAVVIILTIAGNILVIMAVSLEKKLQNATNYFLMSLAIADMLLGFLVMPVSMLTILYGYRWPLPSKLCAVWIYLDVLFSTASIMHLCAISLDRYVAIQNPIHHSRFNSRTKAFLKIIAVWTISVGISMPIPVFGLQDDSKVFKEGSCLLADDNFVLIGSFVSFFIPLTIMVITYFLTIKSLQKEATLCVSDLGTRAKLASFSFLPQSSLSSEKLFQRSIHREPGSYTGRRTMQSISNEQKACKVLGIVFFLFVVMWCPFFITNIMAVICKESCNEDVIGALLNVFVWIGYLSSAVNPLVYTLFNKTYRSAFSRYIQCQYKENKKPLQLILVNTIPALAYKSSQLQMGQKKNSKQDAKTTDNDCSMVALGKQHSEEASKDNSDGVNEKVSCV

With “N-[[1-[2-[(2,2-Dimethyl-3H-benzofuran-7-yl)oxy]ethyl]azetidin-3-yl]methyl]-3-hydroxy-benzenesulphonamide [Compound 111]”, in the assay on σ receptors, the “σ [%]” value is 81%. For the same compound, the “5-HT1A [%]” value in assay [1] came to 99%. Also, in assay [2], the “H1 [%]” value came out at 38%. Moreover, the “D3 [%]” value in assay [3] came to 87%. Besides, the “5-HT7 [%]” value on 5-HT7 receptor is recorded as 100%. Besides, the “5-HT2A [%]” value on 5-HT2A receptor (setting [4]) is listed as 92%. Further, the “α2C [%]” value at α2C adrenergic receptors came to 90%.

In general, inhibition refers to the relative decrease from the control value, in per cent. `Cc1cccc(S(=O)(=O)NC2CCN(CCCc3c[nH]c4ccc(F)cc34)C2)c1` (centres unmarked) [Compound 78, N-[1-[3-(5-Fluoro-1H-indol-3-yl)propyl]pyrrolidin-3-yl]-3-methyl-benzenesulphonamide]: in the assay on σ receptors, the “σ [%]” value is listed as 70%. Further, the inhibition at 1 µM in assay [1] is 99%; in assay [2] it was 65%; in assay [3] it was 98%; on 5-HT7 receptor, 89%; at 5-HT2A receptor (setting [4]), 95%; at α2C adrenergic receptors it was 85%.

Regarding `O=S(=O)(NC1CCN(CCCc2c[nH]c3ccc(Cl)cc23)C1)c1cccc(F)c1` (centres unmarked) [Compound 82, N-[1-[3-(5-Chloro-1H-indol-3-yl)propyl]pyrrolidin-3-yl]-3-fluoro-benzene-sulphonamide], in the assay on σ receptors, the “σ [%]” value worked out at 63%. For the same compound, the inhibition at 1 µM in assay [1] came out at 99%; in assay [2] it was 61%; in assay [3], 94%; at 5-HT7 receptor, 96%; on 5-HT2A receptor (setting [4]) it was 91%; on α2C adrenergic receptors it was 101%.

Take `Cn1ccc2cc(S(=O)(=O)NCC3CCN(CCOc4cccc5c4OCCO5)C3)ccc21` (centres unmarked) [Compound 308, N-[[1-[2-(2,3-Dihydro-1,4-benzodioxin-5-yloxy)ethyl]pyrrolidin-3-yl]methyl]-1-methyl-indole-5-sulphonamide]: the “σ [%]” value in the assay on σ receptors is recorded as 91%. The inhibition at 1 µM in assay [1] amounted to 98%; in assay [2], 37%; in assay [3] it was 43%; at 5-HT7 receptor it was 83%; on 5-HT2A receptor (setting [4]), 91%; on α2C adrenergic receptors, 96%.

For `O=S(=O)(NC1CCN(CCCc2noc3cc(F)ccc23)C1)c1ccc(Cl)c(F)c1` (centres unmarked) [Compound 11, 4-Chloro-3-fluoro-N-[1-[3-(6-fluoro-1,2-benzoxazol-3-yl)propyl]-pyrrolidin-3-yl]benzene-sulphonamide], the “σ [%]” value with σ receptors came out at 74%. Moreover, the inhibition at 1 µM in assay [1] is 60%; in assay [2], 37%; in assay [3], 49%; on 5-HT7 receptor, 97%; at 5-HT2A receptor (setting [4]), 100%; at α2C adrenergic receptors it was 71%.

For the compound `O=S(=O)(NC1CCN(CCCc2noc3cc(F)ccc23)C1)c1cccc2ccccc12` (centres unmarked) [Compound 20, N-[1-[3-(6-Fluoro-1,2-benzoxazol-3-yl)propyl]pyrrolidin-3-yl]naphthalene-1-sulphonamide], the “σ [%]” value with σ receptors was 83%. Further, the inhibition at 1 µM was determined as 67% in assay [1]; 36% in assay [2]; 69% in assay [3]; 98% on 5-HT7 receptor; 100% on 5-HT2A receptor (setting [4]); 78% on α2C adrenergic receptors.

With `O=S(=O)(NCC1CN(CCOc2cccc3c2OCCO3)C1)c1cc2ccccc2o1` [Compound 186, N-[[1-[2-(2,3-Dihydro-1,4-benzodioxin-5-yloxy)ethyl]azetidin-3-yl]methyl]-benzofuran-2-sulphonamide], the “σ [%]” value in the assay on σ receptors is given as 84%. The inhibition at 1 µM was determined as 98% in assay [1]; 17% in assay [2]; 78% in assay [3]; 97% at 5-HT7 receptor; 87% on 5-HT2A receptor (setting [4]); 96% at α2C adrenergic receptors.

Consider `Cc1cc(S(=O)(=O)NCC2CCN(CCOc3cccc4c3OCCO4)C2)c(C)s1` (centres unmarked) [Compound 312, N-[[1-[2-(2,3-Dihydro-1,4-benzodioxin-5-yloxy)ethyl]pyrrolidin-3-yl]methyl]-2,5-dimethylthiophene-3-sulphonamide], for which the “σ [%]” value with σ receptors turned out to be 92%. Also, the inhibition at 1 µM was found to be 98% in assay [1]; 35% in assay [2]; 36% in assay [3]; 86% at 5-HT7 receptor; 87% on 5-HT2A receptor (setting [4]); 94% on α2C adrenergic receptors.

For the compound `Cc1cc(S(=O)(=O)NC2CCN(CCCc3noc4cc(F)ccc34)C2)c(C)s1` (centres unmarked) [Compound 221, N-[1-[3-(6-Fluoro-1,2-benzoxazol-3-yl)propyl]pyrrolidin-3-yl]-2,5-dimethyl-thiophene-3-sulphonamide], the “σ [%]” value in the assay on σ receptors is reported as 83%. The inhibition at 1 µM was 67% in assay [1]; 66% in assay [2]; 92% in assay [3]; 95% at 5-HT7 receptor; 101% at 5-HT2A receptor (setting [4]); 88% on α2C adrenergic receptors.

The Ki is a measure of affinity in units of concentration, obtained from inhibition or displacement. Consider `COc1ccc2cc(S(=O)(=O)N[C@H]3CCN(CCCc4noc5cc(F)ccc45)C3)ccc2c1` [Compound 231, N-[(3S)-1-[3-(6-Fluoro-1,2-benzoxazol-3-yl)propyl]pyrrolidin-3-yl]-6-methoxy-naphthalene-2-sulphonamide], for which the “σ [%]” value in the assay with σ receptors stood at 87%. Further, the inhibition at 1 µM turned out to be 34% in assay [1]; 54% in assay [2]; 91% in assay [3]; 88% on 5-HT7 receptor; 89% at α2C adrenergic receptors. In addition, the inhibitory constant (Ki) on 5-HT2A receptor (read-out: Inhibition constants Ki, 5-HT2A) stood at 1.9 nM.

Take `O=S(=O)(NC1CCN(CCCc2c[nH]c3ccc(F)cc23)C1)c1ccc(Cl)cc1` (centres unmarked) [Compound 77, 4-Chloro-N-[1-[3-(5-fluoro-1H-indol-3-yl)propyl]pyrrolidin-3-yl]-benzenesulphonamide]: the “σ [%]” value in the assay with σ receptors worked out at 48%. The inhibition at 1 µM in assay [1] worked out at 99%; in assay [2], 54%; in assay [3] it was 93%; on 5-HT7 receptor, 89%; at 5-HT2A receptor (setting [4]) it was 100%; at α2C adrenergic receptors, 78%.
